Measured values as given in patent US12110295B2, “WD40 repeat domain protein 5 (WDR5) degradation/disruption compounds and methods of use” (Icahn School of Medicine at Mount Sinai, priority 2018, dated 2024).

target: WDR5 (Homo sapiens, UniProt P61964); assay: Screening of putative WDR5 degraders by Western blot in MV4;11 and/or MIAPACA2 cells; type: cell-based; set-up: After WDR5 degrader treatment, cells were collected and lysed; endogenous in cells; host or cells: MV4;11 and/or MIAPACA2; details: summary of screening, FIGS. 6-10
Protocol: MV4;11 cells were treated with DMSO or indicated compounds at 0.1 μM and 0.5 μM for 18 hours. […]. MIAPACA2 cells were treated with DMSO or indicated compounds at 0.5 μM and 1.0 μM for 18 hours.
MIAPACA2 cells were treated with DMSO or indicated compounds at 0.1 μM and 0.5 μM for 18 hours.
MIAPACA2 cells were treated with DMSO or indicated compounds at 0.5 μM and 1.0 μM or at 1.0 μM and 10 μM for 18 hours.
MV4;11 cells were treated with DMSO or indicated compounds at 0.1 μM and 1.0 μM for 18 hours.
WDR5 degraders were dissolved in DMSO and DMSO with no degraders was used as the control. 1×10^6 MV4;11 cells or 1×10^5 MIAPACA2 or 2×10^5 Hela cells were seeded in 2 mL medium for each well in […].
For prescreening of all the compounds, each test compound was added to the medium at indicated concentrations. After 18 h treatment, cells were collected.
After WDR5 degrader treatment, cells were collected and lysed. Total cell lysates were used for western blot. The following primary antibodies were used: WDR5 (Santa Cruz), vinculin (Cell Signaling Technology), tubulin (Cell Signaling Technology), GAPDH (Santa Cruz). Blots were imaged using fluorescence-labeled secondary antibodies on ChemiDoc™ Imaging Systems.

effective degradation of WDR5 in MV4;11 and/or MIAPACA2 cells | Compound
able to effectively degrade WDR5 | C[C@@H]1CN(c2ccc(-c3cc(CN4CCN(CCNC(=O)CCOCCOCCOCCNc5cccc6c5C(=O)N(C5CCC(=O)NC5=O)C6=O)CC4)ccc3F)cc2NC(=O)c2c[nH]c(=O)cc2C(F)(F)F)C[C@H](C)N1C (stereo partly drawn) [XF078-27, N-(5′-((4-(1-((2-(2,6-dioxopiperidin-3-yl)-1,3-dioxoisoindolin-4-yl)amino)-12-oxo-3,6,9-trioxa-13-azapentadecan-15-yl)piperazin-1-yl)methyl)-2′-fluoro-4-((3S,5R)-3,4,5-trimethylpiperazin-1-yl)-[1,1′-biphenyl]-3-yl)-6-oxo-4-(trifluoromethyl)-1,6-dihydropyridine-3-carboxamide]
able to effectively degrade WDR5 | C[C@@H]1CN(c2ccc(-c3cc(CN4CCN(CCNC(=O)CCCNc5cccc6c5C(=O)N(C5CCC(=O)NC5=O)C6=O)CC4)ccc3F)cc2NC(=O)c2c[nH]c(=O)cc2C(F)(F)F)C[C@H](C)N1C (stereo partly drawn) [XF078-20, N-(5′-((4-(2-(4-((2-(2,6-dioxopiperidin-3-yl)-1,3-dioxoisoindolin-4-yl)amino)butanamido)ethyl)piperazin-1-yl)methyl)-2′-fluoro-4-((3S,5R)-3,4,5-trimethylpiperazin-1-yl)-[1,1′-biphenyl]-3-yl)-6-oxo-4-(trifluoromethyl)-1,6-dihydropyridine-3-carboxamide]
able to effectively degrade WDR5 | Cc1ncsc1-c1ccc(CNC(=O)[C@@H]2C[C@@H](O)CN2C(=O)[C@@H](NC(=O)COCCNC(=O)CCC(=O)N2CCN(c3ncc(-c4cc(NC(=O)c5c[nH]c(=O)cc5C(F)(F)F)c(N5C[C@@H](C)N(C)[C@@H](C)C5)cc4F)cn3)CC2)C(C)(C)C)cc1 [XF078-61, N-(4-fluoro-5-(2-(4-(4-((2-(2-(((S)-1-((2S,4R)-4-hydroxy-2-((4-(4-methylthiazol-5-yl)benzyl)carbamoyl)pyrrolidin-1-yl)-3,3-dimethyl-1-oxobutan-2-yl)amino)-2-oxoethoxy)ethyl)amino)-4-oxobutanoyl)piperazin-1-yl)pyrimidin-5-yl)-2-((3S,5R)-3,4,5-trimethylpiperazin-1-yl)phenyl)-6-oxo-4-(trifluoromethyl)-1,6-dihydropyridine-3-carboxamide]
able to effectively degrade WDR5 | Cc1ncsc1-c1ccc(CNC(=O)[C@@H]2C[C@@H](O)CN2C(=O)[C@@H](NC(=O)COCCOCCOCCOCCOCC(=O)N2CCN(Cc3cnc(N4CC=C(c5cc(NC(=O)c6c[nH]c(=O)cc6C(F)(F)F)c(N6C[C@@H](C)N(C)[C@@H](C)C6)cc5F)CC4)nc3)CC2)C(C)(C)C)cc1 [XF078-139, N-(4-fluoro-5-(1-(5-((4-((S)-19-((2S,4R)-4-hydroxy-2-((4-(4-methylthiazol-5-yl)benzyl)carbamoyl)pyrrolidine-1-carbonyl)-20,20-dimethyl-17-oxo-3,6,9,12,15-pentaoxa-18-azahenicosanoyl)piperazin-1-yl)methyl)pyrimidin-2-yl)-1,2,3,6-tetrahydropyridin-4-yl)-2-((3S,5R)-3,4,5-trimethylpiperazin-1-yl)phenyl)-6-oxo-4-(trifluoromethyl)-1,6-dihydropyridine-3-carboxamide]
able to effectively degrade WDR5 | Cc1ncsc1-c1ccc(CNC(=O)[C@@H]2C[C@@H](O)CN2C(=O)[C@@H](NC(=O)COCCOCCNC(=O)CCC(=O)N2CCN(c3ccc(-c4cc(NC(=O)c5c[nH]c(=O)cc5C(F)(F)F)c(N5C[C@@H](C)N(C)[C@@H](C)C5)cc4F)cn3)CC2)C(C)(C)C)cc1 [XF067-142, N-(4-fluoro-5-(6-(4-((S)-3-((2S,4R)-4-hydroxy-2-((4-(4-methylthiazol-5-yl)benzyl)carbamoyl)pyrrolidine-1-carbonyl)-2,2-dimethyl-5,14-dioxo-7,10-dioxa-4,13-diazaheptadecan-17-oyl)piperazin-1-yl)pyridin-3-yl)-2-((3S,5R)-3,4,5-trimethylpiperazin-1-yl)phenyl)-6-oxo-4-(trifluoromethyl)-1,6-dihydropyridine-3-carboxamide]
able to effectively degrade WDR5 | C[C@@H]1CN(c2cc(F)c(C3=CCN(c4ncc(CN5CCN(C(=O)CCOCCOCCOCCOCCNc6cccc7c6C(=O)N(C6CCC(=O)NC6=O)C7=O)CC5)cn4)CC3)cc2NC(=O)c2c[nH]c(=O)cc2C(F)(F)F)C[C@H](C)N1C (stereo partly drawn) [XF078-159, N-(5-(1-(5-((4-(1-((2-(2,6-dioxopiperidin-3-yl)-1,3-dioxoisoindolin-4-yl)amino)-3,6,9,12-tetraoxapentadecan-15-oyl)piperazin-1-yl)methyl)pyrimidin-2-yl)-1,2,3,6-tetrahydropyridin-4-yl)-4-fluoro-2-((3S,5R)-3,4,5-trimethylpiperazin-1-yl)phenyl)-6-oxo-4-(trifluoromethyl)-1,6-dihydropyridine-3-carboxamide]

Compound | effective degradation of WDR5 in MV4;11 and/or MIAPACA2 cells
Cc1ncsc1-c1ccc(CNC(=O)[C@@H]2C[C@@H](O)CN2C(=O)[C@@H](NC(=O)COCCOCCOCCOCCOCC(=O)N2CCN(c3ncc(-c4cc(NC(=O)c5ccc(F)cc5C(F)(F)F)c(N5C[C@@H](C)N(C)[C@@H](C)C5)cc4F)cn3)CC2)C(C)(C)C)cc1 [XF078-106, (2S,4R)-1-((S)-2-(tert-butyl)-20-(4-(5-(2-fluoro-5-(4-fluoro-2-(trifluoromethyl)benzamido)-4-((3S,5R)-3,4,5-trimethylpiperazin-1-yl)phenyl)pyrimidin-2-yl)piperazin-1-yl)-4,20-dioxo-6,9,12,15,18-pentaoxa-3-azaicosanoyl)-4-hydroxy-N-(4-(4-methylthiazol-5-yl)benzyl)pyrrolidine-2-carboxamide] | able to effectively degrade WDR5
Cc1ncsc1-c1ccc(CNC(=O)[C@@H]2C[C@@H](O)CN2C(=O)[C@@H](NC(=O)CCCCCCCCC(=O)N2CCN(c3ncc(-c4cc(NC(=O)c5ccc(F)cc5C(F)(F)F)c(N5C[C@@H](C)N(C)[C@@H](C)C5)cc4F)cn3)CC2)C(C)(C)C)cc1 [XF078-114, (2S,4R)-1-((S)-2-(10-(4-(5-(2-fluoro-5-(4-fluoro-2-(trifluoromethyl)benzamido)-4-((3S,5R)-3,4,5-trimethylpiperazin-1-yl)phenyl)pyrimidin-2-yl)piperazin-1-yl)-10-oxodecanamido)-3,3-dimethylbutanoyl)-4-hydroxy-N-(4-(4-methylthiazol-5-yl)benzyl)pyrrolidine-2-carboxamide] | able to effectively degrade WDR5
C[C@@H]1CN(c2cc(F)c(-c3cnc(N4CCN(C(=O)CCCCCCNc5cccc6c5C(=O)N(C5CCC(=O)NC5=O)C6=O)CC4)nc3)cc2NC(=O)c2ccc(F)cc2C(F)(F)F)C[C@H](C)N1C (stereo partly drawn) [XF078-121, N-(5-(2-(4-(7-((2-(2,6-dioxopiperidin-3-yl)-1,3-dioxoisoindolin-4-yl)amino)heptanoyl)piperazin-1-yl)pyrimidin-5-yl)-4-fluoro-2-((3S,5R)-3,4,5-trimethylpiperazin-1-yl)phenyl)-4-fluoro-2-(trifluoromethyl)benzamide] | able to effectively degrade WDR5
Cc1ncsc1-c1ccc(CNC(=O)[C@@H]2C[C@@H](O)CN2C(=O)[C@@H](NC(=O)CCCCCCC(=O)N2CCN(c3ncc(-c4cc(NC(=O)c5ccc(F)cc5C(F)(F)F)c(N5C[C@@H](C)N(C)[C@@H](C)C5)cc4F)cn3)CC2)C(C)(C)C)cc1 [XF078-112, (2S,4R)-1-((S)-2-(8-(4-(5-(2-fluoro-5-(4-fluoro-2-(trifluoromethyl)benzamido)-4-((3S,5R)-3,4,5-trimethylpiperazin-1-yl)phenyl)pyrimidin-2-yl)piperazin-1-yl)-8-oxooctanamido)-3,3-dimethylbutanoyl)-4-hydroxy-N-(4-(4-methylthiazol-5-yl)benzyl)pyrrolidine-2-carboxamide] | able to effectively degrade WDR5
Cc1ncsc1-c1ccc(CNC(=O)[C@@H]2C[C@@H](O)CN2C(=O)[C@@H](NC(=O)CCCCCCC(=O)N2CC=C(c3cc(NC(=O)c4c[nH]c(=O)cc4C(F)(F)F)c(N4C[C@@H](C)N(C)[C@@H](C)C4)cc3F)CC2)C(C)(C)C)cc1 [XF078-43, N-(4-fluoro-5-(1-(8-(((S)-1-((2S,4R)-4-hydroxy-2-((4-(4-methylthiazol-5-yl)benzyl)carbamoyl)pyrrolidin-1-yl)-3,3-dimethyl-1-oxobutan-2-yl)amino)-8-oxooctanoyl)-1,2,3,6-tetrahydropyridin-4-yl)-2-((3S,5R)-3,4,5-trimethylpiperazin-1-yl)phenyl)-6-oxo-4-(trifluoromethyl)-1,6-dihydropyridine-3-carboxamide] | able to effectively degrade WDR5
